Each structure is given as a SMILES string.

One assay relates to HL-60. In words: Alamar Blue cytotoxicity. Conditions: for IC50: HL-60, 72 h. The format is cell-based, human. The protocol:
The Alamar Blue assay was used to measure cell viability, as previously described. Adherent cells were seeded in 96-well plates at a density of 7 × 10^3 cells per well, and suspended cells were seeded at 3 × 10^4 cells per well. Drugs were added to each well after overnight incubation for adherent cells or immediately after seeding for suspension cells, and incubation continued for an additional 72 h. […] Four hours (for cell lines) or 24 h (for primary cultures) before the end of incubation, 20 μL of resazurin (30 μM) (Sigma‒Aldrich Co. St. Louis, MO, USA) was added to each well. The absorbance at 570 and 600 nm was measured using a SpectraMax 190 microplate reader (Molecular Devices, Sunnyvale, CA, USA).

A further assay concerns PBMC. In words: Alamar Blue cytotoxicity, noncancerous cells. The format is cell-based, human. Conditions: 72 h. The protocol:
The Alamar Blue assay was used to measure cell viability, as previously described. Adherent cells were seeded in 96-well plates at a density of 7 × 10^3 cells per well, and suspended cells were seeded at 3 × 10^4 cells per well. Drugs were added to each well after overnight incubation for adherent cells or immediately after seeding for suspension cells, and incubation continued for an additional 72 h. The positive control included doxorubicin (Laboratorio IMA S.A.I.C., Buenos Aires, Argentina). Four hours (for cell lines) or 24 h (for primary cultures) before the end of incubation, 20 μL of resazurin (30 μM) (Sigma‒Aldrich Co. St. Louis, MO, USA) was added to each well. The absorbance at 570 and 600 nm was measured using a SpectraMax 190 microplate reader (Molecular Devices, Sunnyvale, CA, USA). […]
PBMC heath peripheral blood mononuclear human primary cell […]
Then, the PBMCs were resuspended in RPMI 1640 or DMEM-F12 supplemented with 20% FBS and 1% antibiotics. The cells were plated at 5 × 10^5 cells/well. Concanavalin A (10 μg/mL, Sigma‒Aldrich) was used as a mitogen to trigger cell division in T lymphocytes and was added at the beginning of the culture. The Research Ethics Committee of the Oswaldo Cruz Foundation
In general terms: Alamar Blue is a resazurin reagent that responds to reducing activity.

For a further assay, the system named is HepG2 cell xenografts. In words: HCC tumor growth xenograft model. The format is in vivo, C.B-17 SCID mice. Conditions: 21 days; for mean tumor weight: negative control 981 mg. The protocol: A total of 48 C.B-17 SCID mice (male and female, 20–25 g) were obtained from the FIOCRUZ-BA animal facility (Salvador, Bahia, Brazil) in accordance with experimental methods authorized by the local Animal Ethics Committee (#22/2021). All mice were fed a standard pellet diet (food and water available ad libitum) and housed in an artificially lit room (12 h dark/light cycle).
HepG2 cells (10^7 cells/500 μL) were implanted subcutaneously into the left front armpit of mice as previously described. The mice were administered intraperitoneally (200 μL/animal) once a day for 3 weeks. […] The animals were euthanized with an anesthetic overdose (thiopental, 100 mg/kg) 1 day after treatment, and the tumors were removed, weighed, and processed for histological examination.

Another assay has as its system 4T1. In words: Alamar Blue cytotoxicity. The note with it: for IC50: 4T1, 72 h. The class given is cell-based, mouse. The protocol: The Alamar Blue assay was used to measure cell viability, as previously described. Adherent cells were seeded in 96-well plates at a density of 7 × 10^3 cells per well, and suspended cells were seeded at 3 × 10^4 cells per well. Drugs were added to each well after overnight incubation for adherent cells or immediately after seeding for suspension cells, and incubation continued for an additional 72 h. The positive control included doxorubicin (Laboratorio IMA S.A.I.C., Buenos Aires, Argentina). Four hours (for cell lines) or 24 h (for primary cultures) before the end of incubation, 20 μL of resazurin (30 μM) (Sigma‒Aldrich Co. St. Louis, MO, USA) was added to each well. The absorbance at 570 and 600 nm was measured using a SpectraMax 190 microplate reader (Molecular Devices, Sunnyvale, CA, USA).

For assay [1], the system named is HepG2 cells. In words: p62/SQSTM1 expression (autophagy). The format is cell-based, human. Conditions: HepG2, 24 h; 8 μM complex 1, 6 μM complex 2. The method, then:
(§1) To stain intracellular proteins, the cells were harvested and resuspended in 0.5-1 mL of 4% formaldehyde for 10 min at 37 °C. The tube was then placed on ice for 1 min, after which the cells were prechilled and permeabilized using a sequence of 100% (30 min) to 90% (30 min) methanol with gentle mixing. After washing with incubation buffer (0.5% bovine serum albumin in PBS), primary antibodies were added and incubated for 1 h at room temperature. Finally, the cells were washed with PBS, and flow cytometry was used to measure cell fluorescence.
The cells were grown on coverslips in 24-well plates and exposed to the drugs for 24 h. The cells were then washed twice with saline solution, permeabilized with 0.5% Triton X-100, treated with RNase (10 μg/mL), and incubated overnight with a primary fluorochrome-conjugated antibody (for antibody details, see Table S5). The next day, the cells were washed with saline solution and mounted using Fluoromount-G with DAPI (Invitrogen, Thermo Fisher Scientific). The cells were examined using a Leica TCS SP8 confocal microscope (Leica Microsystems, Wetzlar, HE, Germany).

The test system of assay [2] is HepG2 cells. In words: NF-κB and Akt/mTOR signaling protein levels by flow cytometry. The class given is cell-based, human. The note with it: HepG2, 24 h; for level of Akt1 / level of phospho-4EBP1 (T36/T45) / level of phospho-Akt (S473) / level of phospho-Akt (T308) / level of phospho-PI3K p85/p55 (T458/T199) / level of phospho-elF4E (S209) / level of phospho-mTOR (S2448): 8 μM complex 1, 6 μM complex 2. The method, then: as §1
(§2) For all flow cytometry analyses, cellular fluorescence was measured using a BD LSRFortessa cytometer, BD FACSDiva software (BD Biosciences) and FlowJo software 10 (FlowJo LLC; Ashland, OR, USA). A minimum of 10,000 events were obtained per sample for intracellular staining, and a minimum of 30,000 events per sample were acquired for cell surface protein staining. Doublets were removed using FSC-A vs FCS-H and SCC-A vs SCC-H. Cellular debris was excluded from the analysis.

Assay [3] concerns HepG2 cells. In words: Light scattering (FSC/SSC) by flow cytometry. The class given is cell-based, human. Conditions: 24, 48, 72 h.
Text: Light scattering characteristics measured by flow cytometry were used to analyze cellular parameters such as size and complexity/granularity in HepG2 cells treated with complexes 1 and 2 (Fig. S6A–S6F). Forward light scattering (FSC) was employed as a cell size metric in this experiment, while side scattering (SSC) was used to determine cell complexity/granularity. […] Both morphological changes are associated with cellular apoptosis, corroborating the findings observed in cells stained with May-Grunwald-Giemsa.
as §2

With `COc1cccc2c1C(=O)c1c(O)c3c(c(O)c1C2=O)C[C@@](O)(C(=O)CO)C[C@@H]3O[C@H]1C[C@H](N)[C@H](O)[C@H](C)O1` [Doxorubicin], the IC50 (as a rule, the point on the concentration scale where inhibition reaches its midpoint) in the assay on HL-60 (Homo sapiens) amounted to 0.35 µM; in the assay on PBMC (Homo sapiens), 1.33 µM; in the assay with 4T1 (Mus musculus) it was 1.53 µM. Also, the Selectivity index in the assay with HL-60 (IC50 BJ/IC50 HL-60) stood at 5.29; with HL-60 (IC50 MRC-5/IC50 HL-60), 4.86; in the assay with 4T1 (IC50 BJ/IC50 4T1) it was 1.21; in the assay with 4T1 (IC50 MRC-5/IC50 4T1) it was 1.11; in the assay with 4T1 (IC50 PBMC/IC50 4T1) it was 0.87. In the assay on HepG2 cell xenografts (1 mg/kg i.p. once a day), this molecule registered a tumor inhibition of 32.2%. The molecule also displayed a mean tumor weight with HepG2 cell xenografts (1 mg/kg i.p. once a day) of 665 mg.
In the case of `Cc1cc(=O)nc([S][Ru+])[nH]1.F[P-](F)(F)(F)(F)F.c1ccc(-c2ccccn2)nc1.c1ccc(P(c2ccccc2)c2ccccc2)cc1.c1ccc(P(c2ccccc2)c2ccccc2)cc1` [Complex 2, trans-[Ru(6m2TU)(PPh3)2(bipy)]PF6], the IC50 in the assay with HL-60 amounted to 4.11 µM. The “induction of autophagy (p62/SQSTM1 expression)” value with HepG2 cells [1] is given as “none of them caused autophagy”. Besides, in the assay on PBMC, the half-inhibitory concentration (IC50) is 11.7 µM. In the assay on HepG2 cell xenografts (2 mg/kg i.p. once a day), this molecule gave a tumor inhibition of 63.6% and a mean tumor weight of 358 mg. In the assay with HepG2 cell xenografts (4 mg/kg i.p. once a day), this molecule came in with a tumor inhibition of 65.4% and a mean tumor weight of 340 mg. Also, in the assay on HepG2 cells [2], the “level of Akt1” value is recorded as “reduced”, the “level of phospho-4EBP1 (T36/T45)” value was “not affected”, the “level of phospho-Akt (S473)” value is “reduced” and the “level of phospho-Akt (T308)” value is “not affected”. In the assay with HepG2 cells [2], the “level of phospho-PI3K p85/p55 (T458/T199)” value is “not affected”, the “level of phospho-elF4E (S209)” value is on record as “not affected” and the “level of phospho-mTOR (S2448)” value is “reduced”. In addition, in the assay on HepG2 cells [3], the “cell size/granularity (FSC decrease, SSC increase)” value was “caused cell shrinkage”. In addition, the IC50 in the assay on 4T1 was 4.52 µM.
`F[P-](F)(F)(F)(F)F.O=c1cc[nH]c([S][Ru+])n1.c1ccc(-c2ccccn2)nc1.c1ccc(P(c2ccccc2)c2ccccc2)cc1.c1ccc(P(c2ccccc2)c2ccccc2)cc1` [Complex 1, trans-[Ru(2TU)(PPh3)2(bipy)]PF6] had a concentration for half-maximal inhibition (IC50) in the assay with HL-60 of 5.71 µM. Moreover, in the assay on HepG2 cells [1], the “induction of autophagy (p62/SQSTM1 expression)” value is recorded as “none of them caused autophagy”. Moreover, the IC50 in the assay on PBMC turned out to be 14.2 µM. For the same molecule, in the assay on HepG2 cell xenografts (2 mg/kg i.p. once a day), the tumor inhibition is recorded as 35.3% and the mean tumor weight stood at 635 mg. In the assay on HepG2 cell xenografts (4 mg/kg i.p. once a day), the tumor inhibition is 53.6% and the mean tumor weight is reported as 455 mg. In the assay on HepG2 cells [2] (8 μM complex 1), the “level of phospho-NF-κB p65 (S529)” value is listed as “reduced” and the “level of phospho-S6 (S235/S236)” value is “reduced”. In the assay on HepG2 cells [2], the “level of Akt1” value is listed as “reduced”, the “level of phospho-4EBP1 (T36/T45)” value is “not affected”, the “level of phospho-Akt (S473)” value was “reduced” and the “level of phospho-Akt (T308)” value was “not affected”. For the same molecule, in the assay with HepG2 cells [2], the “level of phospho-PI3K p85/p55 (T458/T199)” value is given as “not affected”, the “level of phospho-elF4E (S209)” value is “not affected” and the “level of phospho-mTOR (S2448)” value was “reduced”. The “cell size/granularity (FSC decrease, SSC increase)” value with HepG2 cells [3] is given as “caused cell shrinkage”. The molecule further showed an IC50 in the assay on 4T1 of 11.7 µM.
